Where a name gives a salt, the structure may show the parent alone.
Experiments:
[1] = biological target: T1, N-type calcium channel (NTCC) (Homo sapiens, UniProt Q00975); test: FLIPR calcium mobilization assay for N-type calcium channel (differentiated IMR32 cells); format: cell-based; conditions: calcium mobilization in vitro assay, N-type calcium channel blockers
T1 construct: host or cells: IMR32 cells differentiated with dibutyryl cAMP and bromodeoxyuridine
In short: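 Human IMR32 cells differentiated 8 days (1 mM dibutyryl cAMP, 2.5 μM BrdU), pre-stimulated 1 h with 90 mM KCl plus compound (~846 pM–17 μM) and 5 μM nitrendipine, Fluo-4 loaded. FLIPR read basal fluorescence 315 s, then 90 mM KCl agonist added and fluorescence recorded 45 s; non-linear regression.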

[2] = biological target: T2, L-type calcium channel (LTCC) subunits (α1c, α2δ, and β1) (Rattus norvegicus, UniProt P22002); test: FLIPR calcium mobilization assay for L-type calcium channel (HEK293 cells expressing recombinant rat LTCC subunits); format: cell-based; conditions: calcium mobilization in vitro assay, L-type calcium channel blockers
T2 construct: expressed in transfected cells; pcDNA6.2DEST for α1c, pcDNA3.2DEST for β1, pcDNA3.1-Zeo for α2δ
Description: Recombinant human embryonal kidney cells (HEK293, ATCC) stably transfected with either N-type calcium channel (NTCC) subunits (α1b, α2δ, and β3) or L-type calcium channel (LTCC) subunits (α1c, α2δ, and β1) were routinely cultured in growth medium consisting of Dulbecco's Modified Eagles Medium containing 10% FBS, 100 U/mL penicillin, 100 μg/mL streptomycin, 4 mM L-glutamine, 500 μg/mL geneticin (G418), 20 μg/mL Blasticidin S (InVivogen, San Diego, Calif.) and 500 μg/mL zeocin (InVivogen).
FLIPR Calcium Mobilization Assay for L-type Calcium Channel. One day prior to performing this assay, HEK293 cells stably expressing recombinant rat L-type calcium channel (LTCC) subunits (α1c, α2δ, and β1) were trypsinized, then seeded on poly-D-lysine-coated 96-well clear-bottom black plates (Becton Dickinson, Franklin Lakes, N.J.) at 75,000 cells/well. On the day of the assay, the plates were washed with LTCC wash buffer (127 mM NaCl, 2 mM MgCl2, 700 μM NaH2PO4, […], 5 mM NaHCO3, 8 mM HEPES, 10 mM glucose, pH 7.4), then loaded with 0.1 mL of LTCC wash buffer containing Fluo-4 (3 μM final concentration, Molecular Probes, Eugene, Oreg.). After 1 hour, the cells were washed with 0.1 mL LTCC wash buffer and resuspended in 0.05 mL LTCC assay buffer (same composition as LTCC wash buffer). Plates were then transferred to a FLIPR^96 for assay. The FLIPR measured basal Fluo-4 fluorescence for 15 seconds, then added 0.05 mL of each compound tested diluted in LTCC assay buffer at final concentrations ranging from about 846 pM to about 17 μM. Fluo-4 fluorescence was then measured for 5 minutes. 0.1 mL KCl agonist dissolved in LTCC assay buffer was then added to the cells to produce a final concentration of 90 mM KCl, and fluorescence was measured for another 45 seconds. Data were collected over the entire time course and analyzed using Excel, Graph Pad Prism, or an in-house regression analysis software.
Cloning of N- and L-type calcium channel subunit open reading frame cDNAs. Five cDNAs encoding subunits of the rat N- or L-type calcium channels were cloned by PCR amplification in order to reconstitute functional channels in a heterologous system. These were the alpha1b (α1b), beta1 (β1), beta3 (β3), alpha2delta (α2δ), and alpha1c (α1c) subunit cDNAs. The alpha1b subunit cDNA has been described by Dubel et al. in Proc. Natl. Acad. Sci. U.S.A 89: 5058-5062 (1992). The beta1 subunit cDNA has been described by Pragnell et al. in FEBS Lett. 291: 253-258 (1991). The beta3 subunit cDNA has been described by Castellano et al. in J. Biol. Chem. 268: 12359-12366 (1993). The alpha2delta subunit cDNA has been described by Kim et al. in Proc. Natl. Acad. Sci. U.S.A. 89: 3251-3255 (1992). The alpha1c subunit cDNA has been described by Koch et al. in J. Biol. Chem. 265: 17786-17791 (1990).
The 6.5 kb cDNA encoding the L-type calcium channel α1c subunit was cloned by PCR amplification from rat heart cDNA using primers 11 (SEQ ID NO: 11, TABLE 1) and 12 (SEQ ID NO:12, TABLE 1). The PCR fragment was subcloned and fully sequenced on both strands to confirm its identity. A clone matching consensus reference sequence M59786 and rat genomic DNA sequences was recombined into the mammalian expression vector pcDNA6.2DEST. Sequences around the recombinogenic region were sequenced to confirm accurate recombination into the expression vector.
L-type Recombinant Cell Line Development. L-type calcium channel expressing HEK-293 cells were created in two stages. Stage 1 was created as follows. The rat α1c, and β1 cDNA expression constructs (2.5 μg each) were co-transfected into human embryonic kidney (HEK-293) cells by Lipofectamine Plus reagent (Invitrogen), as per manufacturer's instructions. 24 hours later, cells were split in limiting dilution into multiple 96-well plates in selection media containing 20 μg/mL blasticidin and 500 μg/mL geneticin, and incubated for 3 weeks at 37° C., 5% CO2, 95% humidity. […]

T1 sequence (Q00975 whole entry): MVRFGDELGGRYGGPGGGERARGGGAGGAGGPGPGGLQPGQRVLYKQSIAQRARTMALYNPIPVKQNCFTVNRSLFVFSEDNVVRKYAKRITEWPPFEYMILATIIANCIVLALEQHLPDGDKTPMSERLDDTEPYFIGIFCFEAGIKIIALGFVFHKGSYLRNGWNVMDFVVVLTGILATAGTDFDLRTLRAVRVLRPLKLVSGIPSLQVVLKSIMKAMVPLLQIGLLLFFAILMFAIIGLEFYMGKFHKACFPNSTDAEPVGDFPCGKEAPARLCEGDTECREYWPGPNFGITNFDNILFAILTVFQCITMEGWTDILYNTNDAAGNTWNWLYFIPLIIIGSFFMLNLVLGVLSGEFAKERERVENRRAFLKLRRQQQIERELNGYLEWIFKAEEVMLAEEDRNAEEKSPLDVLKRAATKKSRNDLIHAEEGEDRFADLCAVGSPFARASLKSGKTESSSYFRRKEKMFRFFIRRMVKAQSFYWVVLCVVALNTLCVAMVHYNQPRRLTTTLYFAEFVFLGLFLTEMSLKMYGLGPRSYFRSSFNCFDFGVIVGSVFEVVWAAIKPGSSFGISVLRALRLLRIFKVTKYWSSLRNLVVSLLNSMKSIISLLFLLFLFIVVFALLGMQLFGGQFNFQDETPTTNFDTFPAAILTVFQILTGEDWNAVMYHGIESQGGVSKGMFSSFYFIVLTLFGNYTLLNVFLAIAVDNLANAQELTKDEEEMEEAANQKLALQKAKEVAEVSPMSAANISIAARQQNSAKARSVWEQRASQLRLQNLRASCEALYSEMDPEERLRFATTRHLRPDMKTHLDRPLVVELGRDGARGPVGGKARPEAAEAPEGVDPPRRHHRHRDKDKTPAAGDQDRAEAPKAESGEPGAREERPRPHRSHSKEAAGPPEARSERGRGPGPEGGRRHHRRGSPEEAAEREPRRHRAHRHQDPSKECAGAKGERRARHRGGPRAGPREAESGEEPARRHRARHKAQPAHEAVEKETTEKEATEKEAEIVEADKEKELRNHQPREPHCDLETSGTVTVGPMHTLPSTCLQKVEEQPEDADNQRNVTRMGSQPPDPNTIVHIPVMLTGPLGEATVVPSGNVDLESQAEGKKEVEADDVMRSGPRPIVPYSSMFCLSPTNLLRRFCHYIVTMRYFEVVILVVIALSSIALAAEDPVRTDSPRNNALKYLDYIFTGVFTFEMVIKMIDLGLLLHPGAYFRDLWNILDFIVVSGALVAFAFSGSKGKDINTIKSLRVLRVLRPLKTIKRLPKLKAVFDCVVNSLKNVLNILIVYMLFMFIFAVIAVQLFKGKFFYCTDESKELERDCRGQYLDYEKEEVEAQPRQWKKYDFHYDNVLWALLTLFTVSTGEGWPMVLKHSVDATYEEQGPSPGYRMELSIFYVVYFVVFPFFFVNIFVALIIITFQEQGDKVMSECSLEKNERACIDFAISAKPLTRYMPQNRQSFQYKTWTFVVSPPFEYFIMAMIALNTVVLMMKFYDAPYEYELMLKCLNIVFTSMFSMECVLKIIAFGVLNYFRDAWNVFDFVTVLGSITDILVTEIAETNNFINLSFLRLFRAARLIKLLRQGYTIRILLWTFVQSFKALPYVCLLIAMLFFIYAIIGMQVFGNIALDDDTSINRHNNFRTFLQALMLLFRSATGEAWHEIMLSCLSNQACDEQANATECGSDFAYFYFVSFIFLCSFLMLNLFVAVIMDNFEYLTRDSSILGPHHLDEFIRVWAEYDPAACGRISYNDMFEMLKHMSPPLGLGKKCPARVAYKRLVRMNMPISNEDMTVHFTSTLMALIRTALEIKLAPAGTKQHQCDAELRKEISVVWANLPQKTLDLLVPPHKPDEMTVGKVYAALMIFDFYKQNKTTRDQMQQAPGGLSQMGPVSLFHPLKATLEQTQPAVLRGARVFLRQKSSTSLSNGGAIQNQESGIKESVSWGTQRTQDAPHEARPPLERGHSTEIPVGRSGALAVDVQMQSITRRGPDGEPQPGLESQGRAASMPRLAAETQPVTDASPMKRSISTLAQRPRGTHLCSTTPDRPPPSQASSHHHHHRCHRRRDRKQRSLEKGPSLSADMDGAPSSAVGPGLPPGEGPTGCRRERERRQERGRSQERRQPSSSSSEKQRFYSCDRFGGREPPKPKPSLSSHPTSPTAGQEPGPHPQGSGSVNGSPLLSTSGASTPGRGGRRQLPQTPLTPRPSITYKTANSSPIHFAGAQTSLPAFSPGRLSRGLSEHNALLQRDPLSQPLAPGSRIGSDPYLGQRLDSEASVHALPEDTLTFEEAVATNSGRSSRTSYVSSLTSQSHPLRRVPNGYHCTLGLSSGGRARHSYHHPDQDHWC
T2 sequence (P22002 whole entry): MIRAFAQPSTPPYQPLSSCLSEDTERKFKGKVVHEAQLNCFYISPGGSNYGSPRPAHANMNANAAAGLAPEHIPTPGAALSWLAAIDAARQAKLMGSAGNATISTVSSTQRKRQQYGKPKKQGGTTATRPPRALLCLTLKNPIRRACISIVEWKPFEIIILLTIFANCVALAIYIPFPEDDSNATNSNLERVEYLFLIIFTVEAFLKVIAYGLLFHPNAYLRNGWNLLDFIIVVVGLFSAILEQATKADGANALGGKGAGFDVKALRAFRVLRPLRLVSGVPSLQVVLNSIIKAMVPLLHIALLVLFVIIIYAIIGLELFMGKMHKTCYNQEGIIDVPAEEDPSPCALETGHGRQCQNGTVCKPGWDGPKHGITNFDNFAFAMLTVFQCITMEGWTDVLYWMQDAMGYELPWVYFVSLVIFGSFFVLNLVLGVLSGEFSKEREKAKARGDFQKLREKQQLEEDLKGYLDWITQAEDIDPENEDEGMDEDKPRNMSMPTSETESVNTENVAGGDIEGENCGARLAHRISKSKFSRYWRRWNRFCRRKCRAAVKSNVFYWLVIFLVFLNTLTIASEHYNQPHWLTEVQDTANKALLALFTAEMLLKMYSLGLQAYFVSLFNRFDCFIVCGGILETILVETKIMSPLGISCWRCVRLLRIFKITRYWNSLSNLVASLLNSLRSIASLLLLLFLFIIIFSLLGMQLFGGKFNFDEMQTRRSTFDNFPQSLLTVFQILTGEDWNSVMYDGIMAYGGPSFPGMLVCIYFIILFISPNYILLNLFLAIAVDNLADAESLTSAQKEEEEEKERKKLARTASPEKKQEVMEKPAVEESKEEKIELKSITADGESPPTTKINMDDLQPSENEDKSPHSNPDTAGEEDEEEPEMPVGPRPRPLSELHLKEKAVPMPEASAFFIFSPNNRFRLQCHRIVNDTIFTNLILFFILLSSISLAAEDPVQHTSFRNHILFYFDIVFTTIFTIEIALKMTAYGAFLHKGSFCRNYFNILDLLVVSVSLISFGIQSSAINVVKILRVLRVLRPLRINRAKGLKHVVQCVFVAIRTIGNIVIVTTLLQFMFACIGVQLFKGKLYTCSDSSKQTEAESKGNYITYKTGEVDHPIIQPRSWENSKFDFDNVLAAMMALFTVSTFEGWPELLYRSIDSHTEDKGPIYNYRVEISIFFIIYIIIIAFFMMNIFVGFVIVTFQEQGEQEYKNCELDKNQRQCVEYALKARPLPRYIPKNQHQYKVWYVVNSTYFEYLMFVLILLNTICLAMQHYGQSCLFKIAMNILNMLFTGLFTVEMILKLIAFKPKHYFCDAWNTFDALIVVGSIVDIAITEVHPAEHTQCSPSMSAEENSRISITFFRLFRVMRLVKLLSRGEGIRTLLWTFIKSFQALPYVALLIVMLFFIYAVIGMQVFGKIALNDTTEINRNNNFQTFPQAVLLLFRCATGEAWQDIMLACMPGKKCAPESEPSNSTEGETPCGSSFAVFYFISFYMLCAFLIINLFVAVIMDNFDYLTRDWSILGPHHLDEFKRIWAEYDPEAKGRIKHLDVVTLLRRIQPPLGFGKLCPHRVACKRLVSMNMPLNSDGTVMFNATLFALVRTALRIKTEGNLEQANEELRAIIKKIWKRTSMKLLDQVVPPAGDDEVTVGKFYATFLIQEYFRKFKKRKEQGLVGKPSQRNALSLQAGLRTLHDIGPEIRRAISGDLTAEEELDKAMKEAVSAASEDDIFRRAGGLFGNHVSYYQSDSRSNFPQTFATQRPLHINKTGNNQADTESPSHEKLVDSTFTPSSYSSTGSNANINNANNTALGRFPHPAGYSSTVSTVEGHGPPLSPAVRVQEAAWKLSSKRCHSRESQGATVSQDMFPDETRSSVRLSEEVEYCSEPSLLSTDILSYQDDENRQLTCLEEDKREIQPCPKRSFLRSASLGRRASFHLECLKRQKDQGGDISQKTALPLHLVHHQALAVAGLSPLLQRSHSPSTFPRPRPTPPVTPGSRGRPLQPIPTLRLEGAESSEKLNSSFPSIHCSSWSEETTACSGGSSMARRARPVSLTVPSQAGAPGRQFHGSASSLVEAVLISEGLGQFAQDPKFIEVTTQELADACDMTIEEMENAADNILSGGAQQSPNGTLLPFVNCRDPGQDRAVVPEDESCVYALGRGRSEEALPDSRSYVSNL

SMILES: Fc1ccc(C(CCCN2CCC(=NOCc3cccc(C(F)(F)F)c3)CC2)c2ccc(F)cc2)cc1 [Example 12, 1-[4,4-Bis-(4-fluorophenyl)butyl]piperidin-4-one O-(3-trifluoromethylbenzyl)oxime oxalate]
- IC50 [1]: 0.82 µM
- IC50 [2]: > 20 µM

SMILES: O=c1ccc(CON=C2CCN(S(=O)(=O)c3ccc(OC(F)(F)F)cc3)CC2)cn1Cc1ccc(F)cc1 [Example 295, 1-(4-Fluorobenzyl)-5-((1-(4-(trifluoromethoxy)phenylsulfonyl)piperidin-4-ylideneaminooxy)methyl)pyridin-2(1H)-one]
- IC50 [1]: 0.16 µM
- IC50 [2]: > 20 µM

SMILES: O=S(=O)(c1cccc(C(F)(F)F)c1)N1CCC(=NOCC2CCCCC2)CC1 [Example 277, 1-(3-(Trifluoromethyl)phenylsulfonyl)piperidin-4-one O-cyclohexylmethyl oxime]
- IC50 [1]: 0.61 µM
- IC50 [2]: > 20 µM

SMILES: O=C(CCC(c1ccc(F)cc1)c1ccc(F)cc1)N1CCC(=NOCc2ccncc2)CC1 [Example 19, 1-[4,4-Bis-(4-fluorophenyl)butyryl]piperidin-4-one O-pyridin-4-ylmethyloxime oxalate]
- IC50 [1]: 0.76 µM
- IC50 [2]: 4.9 µM

SMILES: N#Cc1cc(CON=C2CCN(C(c3ccc(F)cc3)c3ccc(F)cc3)CC2)ccc1F [Example 182, 5-((1-(Bis(4-fluorophenyl)methyl)piperidin-4-ylideneaminooxy)methyl)-2-fluorobenzonitrile hydrochloride]
- IC50 [1]: 0.69 µM
- IC50 [2]: > 20 µM

SMILES: CCCCCC(C)ON=C1CCN(S(=O)(=O)c2cccc(C(F)(F)F)c2)CC1 (stereo not shown) [Example 369, 1-(3-(Trifluoromethyl)phenylsulfonyl)piperidin-4-one O-heptan-2-yl oxime]
- IC50 [1]: 0.08 µM
- IC50 [2]: > 20 µM

SMILES: CN[C@@H](CC(C)C)C(=O)N1CCC(=NOCc2ccc(Cl)cc2)CC1 [Example 4, 1-((S)-4-Methyl-2-methylaminopentanoyl)piperidin-4-one O-(4-chlorobenzyl)oxime hydrochloride]
- IC50 [1]: 0.86 µM
- IC50 [2]: 15.2 µM

SMILES: CCCCc1ccc(S(=O)(=O)N2CCC(=NOCc3cccc(C(F)(F)F)c3)CC2)cc1 [Example 50, 1-(4-Butyl-benzenesulfonyl)piperidin-4-one O-(3-trifluoromethylbenzyl)oxime]
- IC50 [1]: 0.43 µM
- IC50 [2]: > 20 µM

SMILES: CC(C)C[C@H](N)CC(=O)N1CCC(=NOCc2cccc(C(F)(F)F)c2)CC1 [Example 24, 1-((S)-3-Amino-5-methylhexanoyl)piperidin-4-one O-(3-trifluoromethylbenzyl)oxime oxalate]
- IC50 [1]: 0.99 µM
- IC50 [2]: 7.2 µM

SMILES: CC(C)C[C@H](N)C(=O)N1CCC(=NOCc2cccc(C(F)(F)F)c2)CC1 [Example 8, 1-((S)-2-Amino-4-methylpentanoyl)piperidin-4-one O-(3-trifluoromethylbenzyl)oxime hydrochloride]
- IC50 [1]: 0.69 µM
- IC50 [2]: 9.6 µM

SMILES: O=C(CCC(c1ccc(F)cc1)c1ccc(F)cc1)N1CCC(=NOCc2ccc(C(F)(F)F)cc2)CC1 [Example 30, 1-[4,4-Bis-(4-fluorophenyl)butyryl]piperidin-4-one O-(4-trifluoromethylbenzyl)oxime]
- IC50 [1]: 0.33 µM
- IC50 [2]: > 20 µM

SMILES: CCCCc1ccc(S(=O)(=O)N2CCC(=NOCc3cccc(C#N)c3)CC2)cc1 [Example 77, 3-[1-(4-Butylbenzenesulfonyl)piperidin-4-ylideneaminooxymethyl]benzonitrile]
- IC50 [1]: 0.22 µM
- IC50 [2]: > 20 µM

SMILES: O=S(=O)(c1ccc(OC(F)(F)F)cc1)N1CCC(=NOCc2nc3cc(Cl)cnc3[nH]2)CC1 [Example 308, 1-(4-(Trifluoromethoxy)phenylsulfonyl)piperidin-4-one O-(6-chloro-3H-imidazo[4,5-b]pyridin-2-yl)methyl oxime]
- IC50 [1]: 0.36 µM
- IC50 [2]: > 20 µM

SMILES: Fc1ccc(C(CCCN2CCC(=NOCc3cccnc3)CC2)c2ccc(F)cc2)cc1 [Example 16, 1-[4,4-Bis-(4-fluorophenyl)butyl]piperidin-4-one O-pyridin-3-ylmethyloxime dioxalate]
- IC50 [1]: 0.26 µM
- IC50 [2]: 6.6 µM
